Assay results as given in patent US10385022B2, “3-amino-pyridines as GPBAR1 agonists” (HOFFMANN-LA ROCHE INC., priority 2011, dated 2019).

Biological target: human GPBAR1 receptor (Homo sapiens (Human), UniProt Q8TDU6)
Test: functional cAMP assay in CHO-dhfr(minus) cells expressing human GPBAR1 receptors
Format: cell-based
Conditions: CHO-dhfr(minus) cells expressing human GPBAR1, 30 min at 30° C.
Procedure, shortened: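 Functional cAMP responses in a human GPBAR1-transfected CHO-dhfr- clone, picked using lithocholic acid as agonist, gave the EC50 values. Parallel testing in untransfected CHO cells served as a specificity control.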

Chain of human GPBAR1 receptor (Q8TDU6 whole entry): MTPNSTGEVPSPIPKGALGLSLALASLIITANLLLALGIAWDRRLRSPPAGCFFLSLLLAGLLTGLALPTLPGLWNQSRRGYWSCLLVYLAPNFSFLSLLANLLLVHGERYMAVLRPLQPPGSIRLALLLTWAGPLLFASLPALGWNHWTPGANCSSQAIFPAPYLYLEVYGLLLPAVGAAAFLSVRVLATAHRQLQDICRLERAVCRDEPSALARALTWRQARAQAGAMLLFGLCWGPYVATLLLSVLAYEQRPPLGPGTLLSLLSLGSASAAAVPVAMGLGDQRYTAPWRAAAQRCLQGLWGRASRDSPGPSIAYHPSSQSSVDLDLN

EC50 [nM] | SMILES
66 | O=C(c1cc(C(F)(F)F)cc(C(F)(F)F)c1)N(CCO)c1cnccc1-c1ccccc1Cl [Example 115, N-[4-(2-Chloro-phenyl)-pyridin-3-yl]-N-(2-hydroxy-ethyl)-3,5-bis-trifluoromethyl-benzamide]
88 | O=C(c1cc(C(F)(F)F)cc(C(F)(F)F)c1)N(CC(F)F)c1cnccc1-c1ccccc1Cl [Example 116, N-[4-(2-Chloro-phenyl)-pyridin-3-yl]-N-(2,2-difluoro-ethyl)-3,5-bis-trifluoromethyl-benzamide]
52 | NC(=O)CN(C(=O)c1cc(C(F)(F)F)cc(C(F)(F)F)c1)c1cnccc1-c1ccccc1Cl [Example 117, N-Carbamoylmethyl-N-[4-(2-chloro-phenyl)-pyridin-3-yl]-3,5-bis-trifluoromethyl-benzamide]
2470 | CN(C)C(=O)CN(C(=O)c1cc(C(F)(F)F)cc(C(F)(F)F)c1)c1cnccc1-c1ccccc1Cl [Example 118, N-[4-(2-Chloro-phenyl)-pyridin-3-yl]-N-dimethylcarbamoylmethyl-3,5-bis-trifluoromethyl-benzamide]
610 | Cc1cc(C(=O)N(C)c2cnccc2-c2ccccc2C)cc(Cl)n1 [Example 119, 2-Chloro-6,N-dimethyl-N-(4-o-tolyl-pyridin-3-yl)-isonicotinamide]
170 | Cc1ccccc1-c1ccncc1N(C)C(=O)c1cc(Cl)nc(Cl)c1 [Example 120, 2,6-Dichloro-N-methyl-N-(4-o-tolyl-pyridin-3-yl)-isonicotinamide]
1920 | Cc1cc(C)nc(C(=O)N(C)c2cnccc2-c2ccccc2C)c1 [Example 121, 4,6-Dimethyl-pyridine-2-carboxylic acid methyl-(4-o-tolyl-pyridin-3-yl)-amide]
2430 | Cc1cc(Cl)cc(C(=O)N(C)c2cnccc2-c2ccccc2C)n1 [Example 122, 4-Chloro-6-methyl-pyridine-2-carboxylic acid methyl-(4-o-tolyl-pyridin-3-yl)-amide]
473 | Cc1ccccc1-c1ccncc1N(C)C(=O)c1cc(Cl)cc(Cl)n1 [Example 123, 4,6-Dichloro-pyridine-2-carboxylic acid methyl-(4-o-tolyl-pyridin-3-yl)-amide]
1980 | O=C(c1cc(C(F)(F)F)cc(C(F)(F)F)c1)N(c1cnccc1-c1ccccc1Cl)C1CC1 [Example 124, N-[4-(2-Chloro-phenyl)-pyridin-3-yl]-N-cyclopropyl-3,5-bis-trifluoromethyl-benzamide]
1490 | O=C(NCCN(C(=O)c1cc(C(F)(F)F)cc(C(F)(F)F)c1)c1cnccc1-c1ccccc1Cl)OCc1ccccc1 [Example 125, (2-{(3,5-Bis-trifluoromethyl-benzoyl)-[4-(2-chloro-phenyl)-pyridin-3-yl]-amino}-ethyl)-carbamic acid benzyl ester]
620 | CC(C)N(C(=O)c1cc(C(F)(F)F)cc(C(F)(F)F)c1)c1cnccc1-c1ccccc1Cl [Example 126, N-[4-(2-Chloro-phenyl)-pyridin-3-yl]-N-isopropyl-3,5-bis-trifluoromethyl-benzamide]
75 | Cc1cc(-c2ccccc2C)c(N(C)C(=O)c2cc(C(F)(F)F)cc(C(F)(F)F)c2)cn1 [Example 127, N-Methyl-N-(6-methyl-4-o-tolyl-pyridin-3-yl)-3,5-bis-trifluoromethyl-benzamide]
29 | Cc1ccccc1-c1ccncc1N(C)C(=O)c1cc(C(F)(F)F)cc(S(=O)(=O)N(C)C)c1 [Example 128, 3-Dimethylsulfamoyl-N-methyl-N-(4-o-tolyl-pyridin-3-yl)-5-trifluoromethyl-benzamide]
76 | COc1cc(F)ccc1-c1ccncc1N(C)C(=O)c1cc(F)cc(C(F)(F)F)c1 [Example 129, 3-Fluoro-N-[4-(4-fluoro-2-methoxy-phenyl)-pyridin-3-yl]-N-methyl-5-trifluoromethyl-benzamide]
